Measured values from US11505560B2, “Heterobifunctional compounds with improved specificity” (DANA-FARBER CANCER INSTITUTE, INC., priority 2017, dated 2022).

How the values were obtained:
[1] = target: T1, IKZF1Δ-EGFP fusion protein (Homo sapiens, UniProt Q13422+Q96SW2, DEL197-239); experiment: IKZF1Δ-EGFP fusion protein degradation reporter assay (flow cytometry); type: cell-based; conditions: HEK293T cells
T1 construct: expressed in transfected cells; HEK293T cells
Procedure: IKZF1A, BRD2BD1, BRD2BD2, BRD3BD1, BRD3BD2, BRD4BD1, and BRD4BD2 were subcloned into mammalian pcDNA5/FRT Vector (Ampicillin and Hygromycin B resistant) modified to contain MCS-eGFP-P2A-mCherry. […] Following 2-3 passage cycle FACS (FACSAria II, BD) was used to enrich for cells expressing eGFP and mCherry.
Signal from 5000 cells per well was acquired in singlicate or duplicate and the eGFP and mCherry florescence monitored. Data was analyzed using FlowJo (FlowJo, LCC). […] The eGFP protein abundance relative to mCherry was then quantified as a ten-fold amplified ratio for each individual cell using the formula: 10×eGFP/mCherry. The median of the ratio was then calculated per set, normalized to the median of the DMSO ratio, and is denoted as relative abundance. Standard deviation is calculated from four replicates (n=4) unless described otherwise.

[2] = system: IKZF1, IKZF3 and ZFP91 in MM.1s cells; experiment: Quantitative proteomics (TMT LC-MS3) in MM.1s cells; type: cell-based, human; conditions: 1 μM, five hours
Procedure: A micro-BCA assay (Pierce) was used to determine the final protein concentration in the cell lysate. […] Proteins were precipitated using methanol/chloroform. In brief, four volumes of methanol were added to the cell lysate, followed by one volume of chloroform, and finally three volumes of water.

[3] = target: T2, IKZF1Δ-CRBN complex formation (Homo sapiens, UniProt Q13422+Q96SW2, DEL197-239); experiment: CRBN-IKZF1Δ binding assay (TR-FRET); conditions: IKZF1Δ and DDB1ΔB-CRBN
T2 construct: made in house; host or cells: Trichoplusia ni High-Five insect cells (baculovirus)
Procedure: Compounds in CRBN mutants dimerization assay were dispensed as described above into 200 nM His6-DDB1-His6-CRBNmutants or 200 nM His6-DDB1ΔB-His6-CRBNWT, 100 nM BRD4BD1-BODIPY-SpyCatcher and 2 nM terbium-anti-HIS Ab (Invitrogen) in a buffer containing 50 mM Tris pH 7.5, 100 mM NaCl, 0.1% Pluronic F-68 solution (Sigma) and 2% DMSO (4% DMSO final). Before TR-FRET measurements were conducted, the reactions were incubated for 15 min at RT. […] The TR-FRET signal of each data point was extracted by calculating the 520/490 nm ratio. […] The peak height of TR-FRET dBET dose response data was calculated in GraphPad Prism 7 using Area Under Curve analysis for three independent replicates (n=3) and the mean peak height and standard deviation calculated.
The standard deviation in IKZF1A TR-FRET compound titrations was calculated from three biological replicates (n=3) as an average of 5 technical replicates per well per experiment, or as an average of 5 technical replicates of single experiment for unlabelled protein titrations.

T2 sequence (Q96SW2 whole entry, stated change not applied): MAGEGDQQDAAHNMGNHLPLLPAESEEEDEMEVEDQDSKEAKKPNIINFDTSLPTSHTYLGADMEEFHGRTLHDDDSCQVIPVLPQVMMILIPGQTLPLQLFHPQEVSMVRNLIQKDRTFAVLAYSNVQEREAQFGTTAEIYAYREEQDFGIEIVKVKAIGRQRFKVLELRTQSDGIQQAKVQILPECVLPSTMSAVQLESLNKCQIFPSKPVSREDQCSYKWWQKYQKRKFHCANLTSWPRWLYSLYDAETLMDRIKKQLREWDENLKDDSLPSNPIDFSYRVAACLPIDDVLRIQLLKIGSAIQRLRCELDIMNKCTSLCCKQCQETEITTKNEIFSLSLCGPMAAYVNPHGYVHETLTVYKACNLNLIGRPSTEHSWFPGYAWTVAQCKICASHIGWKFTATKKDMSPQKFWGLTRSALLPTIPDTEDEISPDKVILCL
T2 sequence (Q13422 with tags, fused parts or gaps DEL197-239 limits assumed): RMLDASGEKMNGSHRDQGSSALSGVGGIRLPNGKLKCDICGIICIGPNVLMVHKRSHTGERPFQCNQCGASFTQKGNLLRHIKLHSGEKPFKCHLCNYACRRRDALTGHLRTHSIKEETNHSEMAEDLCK
T1 sequence (Q13422 with tags, fused parts or gaps DEL197-239 limits assumed): as above
T1 sequence (Q96SW2 whole entry, stated change not applied, the tested form may be a part): as the sequence (Q96SW2 whole entry, stated change not applied) above
T1 sequence (Q16531 whole entry partner, the tested form may be a part): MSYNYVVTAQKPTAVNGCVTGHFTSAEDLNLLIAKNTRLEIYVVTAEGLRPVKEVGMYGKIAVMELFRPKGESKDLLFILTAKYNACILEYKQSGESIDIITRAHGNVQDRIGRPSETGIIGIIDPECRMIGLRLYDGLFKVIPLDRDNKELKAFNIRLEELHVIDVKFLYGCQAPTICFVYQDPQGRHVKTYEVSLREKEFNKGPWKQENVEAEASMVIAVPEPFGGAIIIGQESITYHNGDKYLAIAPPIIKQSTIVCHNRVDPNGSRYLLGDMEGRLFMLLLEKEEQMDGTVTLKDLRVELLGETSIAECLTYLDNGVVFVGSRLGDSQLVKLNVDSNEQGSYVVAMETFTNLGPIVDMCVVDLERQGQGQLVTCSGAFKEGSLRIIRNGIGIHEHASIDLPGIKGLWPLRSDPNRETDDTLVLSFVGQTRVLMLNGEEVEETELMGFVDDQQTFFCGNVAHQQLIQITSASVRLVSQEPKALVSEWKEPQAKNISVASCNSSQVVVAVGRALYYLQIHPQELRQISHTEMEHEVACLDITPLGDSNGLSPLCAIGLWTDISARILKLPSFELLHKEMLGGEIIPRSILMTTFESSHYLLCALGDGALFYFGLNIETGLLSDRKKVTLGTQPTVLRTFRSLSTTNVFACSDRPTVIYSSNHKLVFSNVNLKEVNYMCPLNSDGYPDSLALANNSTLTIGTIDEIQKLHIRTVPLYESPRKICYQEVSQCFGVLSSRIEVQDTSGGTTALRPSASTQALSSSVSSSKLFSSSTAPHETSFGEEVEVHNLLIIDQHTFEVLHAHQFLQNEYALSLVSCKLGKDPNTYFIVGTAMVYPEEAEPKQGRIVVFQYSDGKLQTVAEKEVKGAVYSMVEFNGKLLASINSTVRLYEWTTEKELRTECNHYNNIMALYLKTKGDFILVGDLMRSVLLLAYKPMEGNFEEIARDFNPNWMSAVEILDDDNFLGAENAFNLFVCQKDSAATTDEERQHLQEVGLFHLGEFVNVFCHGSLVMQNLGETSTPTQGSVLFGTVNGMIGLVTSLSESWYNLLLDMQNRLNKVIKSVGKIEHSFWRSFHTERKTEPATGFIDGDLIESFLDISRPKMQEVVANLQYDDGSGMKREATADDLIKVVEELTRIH

COC(=O)C[C@@H]1N=C(c2ccc(Cl)cc2)c2c(sc(C(=O)NCCCCCCCCNc3cccc4c3C(=O)N(C3CCC(=O)NC3=O)C4=O)c2C)-n2c(C)nnc21 (stereo partly drawn) [dBET70, reference compound]
cellular IKZF1 degradation (in words) [1]: equipotent to lenalidomide | co-degradation of CRBN-lenalidomide neo-substrates IKZF1, IKZF3 and ZFP91 [2]: pronounced co-degradation of CRBN-lenalidomide neo-substrates IKZF1, IKZF3 and ZFP91 | induction of IKZF1-CRBN complex formation / IKZF1 binding (in words) [3]: pronounced complex formation
